The test addresses Protein Kinase C beta 2 (PKCβII) (Homo sapiens, UniProt P05771). In words: PKCβII coupled PK/LDH spectrophotometric kinase assay (decrease of NADH absorbance at 340 nm). Type of test: biochemical. The following applies: apparent Ki, Morrison fit, 0.1 mM ATP, 30° C., pH 7.4; read-out: PKCb Ki. As for the experimental part:
This transfer is coupled to the oxidation of p-NADH through the activities of Pyruvate Kinase (PK) and Lactate Dehydrogenase (LDH).
A typical assay was carried out on a 96-well, clear microtiter plate in a Molecular Devices spectrophotometer for 20 minutes at 30° C. in 0.1 mL of assay buffer containing 50 mM HEPES, pH 7.4, 5 nM PKC, 23 units of pyruvate kinase, 33 units of lactate dehydrogenase, 0.15 mM peptide, 0.1 mM ATP, 1 mM DTT, 4 mM PEP, 8 mM MgCl2, 0.3 mM NADH, 60 mM CaCl2, 10 mg/mL PS, 50 ng/mL PMA, 7.5% DMSO and from about 10,000 nM to 0.169 nM compound inhibitor. Stock solutions of 3-sn-phosphatidyl-L-serine (PS) and phorbol-12-myristate-13-acetate (PMA) were sonicated for 30 seconds just prior to addition to assay buffer and assays were initiated by the addition of 100 μM ATP.
Enzyme turnover values (kcat) were calculated according to […], where [E] is the total enzyme concentration. […] Morrison, J. F., Biochim. Biophys Acta 185: 269-286 (1969).

Chain of Protein Kinase C beta 2 (PKCβII) (P05771 1-673 isoform P05771-2): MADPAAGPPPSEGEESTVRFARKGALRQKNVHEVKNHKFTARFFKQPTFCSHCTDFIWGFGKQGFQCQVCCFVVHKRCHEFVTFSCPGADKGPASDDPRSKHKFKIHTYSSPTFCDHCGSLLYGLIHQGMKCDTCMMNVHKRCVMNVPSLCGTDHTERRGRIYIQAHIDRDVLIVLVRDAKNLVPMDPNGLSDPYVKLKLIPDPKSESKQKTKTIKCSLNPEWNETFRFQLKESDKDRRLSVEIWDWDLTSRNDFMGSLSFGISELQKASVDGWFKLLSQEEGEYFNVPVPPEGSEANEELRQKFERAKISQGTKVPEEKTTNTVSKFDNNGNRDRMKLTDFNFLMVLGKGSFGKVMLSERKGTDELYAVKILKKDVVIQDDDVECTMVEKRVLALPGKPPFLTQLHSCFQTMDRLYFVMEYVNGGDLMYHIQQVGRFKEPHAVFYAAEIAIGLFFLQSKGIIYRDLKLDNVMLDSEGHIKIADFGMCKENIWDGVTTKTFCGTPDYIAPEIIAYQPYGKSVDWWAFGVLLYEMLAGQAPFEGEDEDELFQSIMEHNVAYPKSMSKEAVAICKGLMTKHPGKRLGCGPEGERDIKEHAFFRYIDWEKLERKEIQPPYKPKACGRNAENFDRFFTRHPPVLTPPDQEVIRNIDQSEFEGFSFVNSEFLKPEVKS

On to `CCOc1cccc(C(=O)Nc2n[nH]c3c2CN(C(=O)N2C[C@@H]4CCCN4C[C@@H]2C)C3(C)C)c1` [Example E5, N-(6,6-dimethyl-5-((3S,8aS)-3-methyl-octahydropyrrolo[1,2-a]pyrazine-2-carbonyl)-1,4,5,6-tetrahydropyrrolo[3,4-c]pyrazol-3-yl)-3-ethoxybenzamide], for which the Ki was 37.5 nM.

Values taken from patent publication US8114871B2, “3-amido-pyrrolo[3,4-C]pyrazole-5(1H,4H,6H) carbaldehyde derivatives” (Pfizer Inc., priority 2007, dated 2012).
